Test results: ChEMBL document CHEMBL1134128, “Rational design of a new series of pronucleotide” (Bioorg Med Chem Lett, 2001)

Key:
CEM-SS [1] = assay: Cytotoxic concentration to inhibit HIV replication in TK CEM-SS cell line and the value is represented as CC50; format: functional; conditions: Homo sapiens
CEM-SS [2] = assay: Effective concentration to inhibit HIV replication in TK CEM-SS cell line and the value is represented as EC50; format: functional, cell-based; conditions: Homo sapiens
[3] = Half life in culture medium containing 10% of heat inactivated foetal calf serum; format: ADME, cell-free, Bos taurus; conditions: cattle
[4] = Partition coefficient (logP); format: physicochemical; conditions: octanol/water
[5] = Half life were determined in CEM-SS cell extract in decomposition step 1; format: ADME; conditions: human
[6] = The pKa value was reported; format: physicochemical
[7] = Half life in human serum; format: ADME, cell-free
CEM-SS [8] = assay: Cytotoxic concentration to inhibit HIV replication in TK CEM-SS cell line; format: functional; conditions: Homo sapiens
CEM-SS [9] = assay: Effective concentration to inhibit HIV replication in TK CEM-SS cell line; format: functional, cell-based; conditions: Homo sapiens

| half-life [3] [h] | logP [4] | half-life [5] [h] | pKa [6] | half-life [7] [h] | EC50 (CEM-SS [9]) [µM] | SMILES | CC50 (CEM-SS [1]) [µM] | EC50 (CEM-SS [2]) [µM] | CC50 (CEM-SS [8]) [µM] |
| --- | --- | --- | --- | --- | --- | --- | --- | --- | --- |
| 350 | 2.45 | 1.2 | 10.4 | 23 | – | Cc1cn(C2CC(N=[N+]=[N-])C(COP(=O)(NC(C)(C)C)OCCSC(=O)C(C)(C)C)O2)c(=O)[nH]c1=O (centres undefined) | > 100 | 1.5 | – |
| 200 | 1.91 | 1.2 | 10.6 | 10 | 0.63 | Cc1cn(C2CC(N=[N+]=[N-])C(COP(=O)(NC(C)C)OCCSC(=O)C(C)(C)C)O2)c(=O)[nH]c1=O (centres undefined) | – | – | > 100 |
| 165 | 2.67 | 1.3 | 10.6 | 29 | – | CCCCNP(=O)(O)OCC1OC(n2cc(C)c(=O)[nH]c2=O)CC1N=[N+]=[N-] (centres undefined) | > 100 | 1.2 | – |
| 100 | 2.55 | 1.4 | 4.68 | 23 | – | Cc1cn(C2CC(N=[N+]=[N-])C(COP(=O)(Nc3ccccc3)OCCSC(=O)C(C)(C)C)O2)c(=O)[nH]c1=O (centres undefined) | > 10 | > 10 | – |
| – | – | – | – | – | > 100 | Cc1cn([C@H]2C[C@H](N=[N+]=[N-])[C@@H](CO)O2)c(=O)[nH]c1=O [ZIDOVUDINE] | – | – | > 100 |

| SMILES | half-life [3] [h] | logP [4] | half-life [5] [h] | pKa [6] | half-life [7] [h] | EC50 (CEM-SS [9]) [µM] | CC50 (CEM-SS [1]) [µM] | EC50 (CEM-SS [2]) [µM] | CC50 (CEM-SS [8]) [µM] |
| --- | --- | --- | --- | --- | --- | --- | --- | --- | --- |
| Cc1cn(C2CC(N=[N+]=[N-])C(COP(=O)(O)N3CCOCC3)O2)c(=O)[nH]c1=O (centres undefined) | 385 | 1.86 | 2.1 | 8.36 | 23 | – | > 100 | 2 | – |
| CCCCN(CCCC)P(=O)(O)OCC1OC(n2cc(C)c(=O)[nH]c2=O)CC1N=[N+]=[N-] (centres undefined) | 136 | 4 | 0.96 | 11.2 | 23 | – | > 10 | > 10 | – |
| Cc1cn(C2CC(N=[N+]=[N-])C(COP(=O)(O)N3CCCCC3)O2)c(=O)[nH]c1=O (centres undefined) | – | 2.77 | 1.2 | 11.1 | – | – | > 100 | 5.2 | – |
